Measured values taken from patent US12060355B2, “Compounds for use in the treatment of fascioliasis” (Merck Patent GmbH, priority 2018, dated 2024).

What was measured:
F. hepatica adult fluke = F. hepatica adult fluke motility score, in vitro; format: cell-based, Fasciola hepatica; parameters: key: Good movement Score 1 • (Curled, sticking on wall, movement on petri plate or conical flask); Moderate movement Score 2 • (Less vigor but more than 10 seconds pulses or peristaltic waves); Resting Score 3 • (Less than 10 second pulses in head and body); Apathetic Score 4 • (Head and body with less than 2 second pulses); Faint movement of suckers Score 5 • (Movement of oral or ventral suckers only, whole body paralyzed); Inert Score 6 • (No movement at all or dead)
Source text: The routine biological assays using adult liver fluke are described in Alessandra Crusco, Cinzia Bordoni, Anand Chakroborty, Kezia C. L. Whatley, Helen Whiteland, Andrew D. Westwell, Karl F. Hoffmann, “Design, synthesis and anthelmintic activity of 7-keto-sempervirol analogues”, European Journal of Medicinal Chemistry, Volume 152, 2018, Pages 87-100.
The routine biological assays using adult or juvenile S. mansoni worms and cytotoxicity assays using MRC-5 cells have been disclosed previously in Mansour, N. R., et al. (2016). “High Throughput Screening Identifies Novel Lead Compounds with Activity against Larval, Juvenile and Schistosoma mansoni PLoS Negl Trop Dis 10(4): e0004659. […] Motility is scored as per the table below: • Good movement Score 1 • (Curled, sticking on wall, movement on petri plate or conical flask) • Moderate movement Score 2 • (Less vigor but more than 10 seconds pulses or peristaltic waves) • Resting Score 3 • (Less than 10 second pulses in head and body) • Apathetic Score 4 • (Head and body with less than 2 second pulses) • Faint movement of suckers Score 5 • (Movement of oral or ventral suckers only, whole body paralyzed) • Inert Score 6 • (No movement at all or dead) • (b) S. mansoni adult worms • (c) S. mansoni juvenile worms • (d) S. haemotobium adult worms • (e) Cytotoxicity against human MRC-5 cell line • (f) Cytotoxicity against human HepG2 cell lines

human HepG2 cell lines = format: cell-based; conditions: human HepG2 cell line
juvenile worms = test: In vivo mouse model infected with juvenile worms, worm recovery; parameters: species or system S. mansoni; conditions: Schistosoma mansoni, 360 h, mice, juvenile infection, Formulation F1, read-out: Percent worm reduction
Protocol: Methods for the subcutaneous infection of mice and subsequent worm recovery were as described in Mansour et al (2016) except that infection was with 150 cercariae and the perfusion medium was citrate saline (0.9% sodium chloride, 1.5% tri-sodium citrate). Perfusion was carried out 8 days (adult infections) or 15 days (juvenile infections) after treatment. Perfuseate was collected into 30 mL universal tubes. RBC (Red Blood Cells) were removed by allowing the perfuseate to settle for 10 min, removal of most of the supernatant and washing once as above with 10 mL perfusion medium. A drop of dilute aqueous saponin solution was added to lyse any remaining RBC and the worm suspension poured into a grid-marked small petri dish. The tube was rinsed out into the petri dish and examined for any remaining worms. Worms were counted using a dissecting microscope. The mouse livers removed after perfusion were squashed between two thick glass plates and examined visually and any remaining worms added to those counted as above.
For testing efficacy against the juvenile worms, treatment was on day 25 post infection and for testing against the adult worms on day 42 post infection. Drugs were suspended in 7% Tween-80/3% Ethanol/double distilled water and drug dispersal was facilitated by vortexing and using a sonicating water bath (Formulation F1). […]

Q: With `CC(C)c1nc2cnc(-c3ccc(F)c(C(F)(F)F)c3)cn2c1-c1c(F)cc(O)cc1F` [Example 17, 3,5-difluoro-4-[2-(propan-2-yl)-6-[4-fluoro-3-(trifluoromethyl)phenyl]imidazo[1,2-a]pyrazin-3-yl]phenol] as the molecule, how does the “Mean motility score of F hepatica at 24 h” value (F. hepatica adult fluke; 0.04 μM, 24 h) read?
A: The value was 1, 1, 1.

Q: What about the “Mean motility score of F hepatica at 48 h” value (F. hepatica adult fluke; 0.04 μM, 48 h) of the same molecule?
A: The value was 1, 1, 1.

Q: And the “Mean motility score of F hepatica at 72 h” value (F. hepatica adult fluke; 0.04 μM, 72 h)?
A: The value was 1, 1, 1.

Q: What about the “Mean motility score of F hepatica at 24 h” value (F. hepatica adult fluke; 0.2 μM, 24 h) of the same molecule?
A: Its value is 3.

Q: And the “Mean motility score of F hepatica at 48 h” value (F. hepatica adult fluke; 0.2 μM, 48 h)?
A: Its value is 3.

Q: And the “Mean motility score of F hepatica at 72 h” value (F. hepatica adult fluke; 0.2 μM, 72 h)?
A: Its value is 6.

Q: What about the “Mean motility score of F hepatica at 24 h” value (F. hepatica adult fluke; 1 μM, 24 h) of the same molecule?
A: The value was 6, 6, 6.

Q: And the “Mean motility score of F hepatica at 48 h” value (F. hepatica adult fluke; 1 μM, 48 h)?
A: The value was 6, 6, 6.

Q: What about the “Mean motility score of F hepatica at 72 h” value (F. hepatica adult fluke; 1 μM, 72 h) of the same molecule?
A: The value was 6, 6, 6.

Q: What about the “Mean motility score of F hepatica at 24 h” value (F. hepatica adult fluke; 5 μM, 24 h) of the same molecule?
A: Its value is 6, 6, 6.

Q: And the “Mean motility score of F hepatica at 48 h” value (F. hepatica adult fluke; 5 μM, 48 h)?
A: Its value is 6, 6, 6.

Q: And the “Mean motility score of F hepatica at 72 h” value (F. hepatica adult fluke; 5 μM, 72 h)?
A: The value was 6, 6, 6.

Q: And the “F. hepatica motility score after 24 h” value (F. hepatica adult fluke; adult fluke, 5 μM, 24 h, score 1 (good movement) to 6 (inert))?
A: Its value is “(6, 6, 6) at 5 μM”.

Q: What about the “F. hepatica motility score after 48 h” value (F. hepatica adult fluke; adult fluke, 5 μM, 48 h, score 1 to 6 (inert)) of the same molecule?
A: Its value is “(6, 6, 6) at 5 μM”.

Q: And the “F. hepatica motility score after 72 h” value (F. hepatica adult fluke; adult fluke, 5 μM, 72 h, score 1 to 6 (inert))?
A: Its value is “(6, 6, 6) at 5 μM”.

Q: And the “Cytotox HepG2” value (human HepG2 cell lines)?
A: The value was 7.1 µM.

Q: What about the inhibition in vivo at 50 mg/kg (juvenile worms; oral 50 mg/kg) of the same molecule?
A: The inhibition in vivo at 50 mg/kg was 38%.

Q: What about the inhibition in vivo at 200 mg/kg (juvenile worms; oral 200 mg/kg) of the same molecule?
A: The inhibition in vivo at 200 mg/kg was 84%.
